Data as given in ChEMBL document CHEMBL1148601, “Inhibition of cytosolic phospholipase A2alpha: hit to lead optimization” (J Med Chem, 2006).
Active and inactive are the calls of the source. No cut-off for these calls is given here.

Key:
[1] = Inhibition of TXB2 production in Sprague-Dawley rat whole blood; assay type: functional, tissue-based
[2] = Inhibition of TXB2 production in human whole blood; assay type: functional, tissue-based
[3] = Inhibition of PGF2-alpha production in the presence of exogenous arachidonic acid in MC9 cell at 1.5 uM; assay type: functional; conditions: Mus musculus
[4] = Plasma concentration in rat; assay type: ADME, organism-based
[5] = molecular target: T1, Cytosolic phospholipase A2 (Homo sapiens, UniProt P47712); assay: Inhibition of cytosolic phospholipase A2-alpha in GLU micelle assay
T1 sequence (P47712 whole entry): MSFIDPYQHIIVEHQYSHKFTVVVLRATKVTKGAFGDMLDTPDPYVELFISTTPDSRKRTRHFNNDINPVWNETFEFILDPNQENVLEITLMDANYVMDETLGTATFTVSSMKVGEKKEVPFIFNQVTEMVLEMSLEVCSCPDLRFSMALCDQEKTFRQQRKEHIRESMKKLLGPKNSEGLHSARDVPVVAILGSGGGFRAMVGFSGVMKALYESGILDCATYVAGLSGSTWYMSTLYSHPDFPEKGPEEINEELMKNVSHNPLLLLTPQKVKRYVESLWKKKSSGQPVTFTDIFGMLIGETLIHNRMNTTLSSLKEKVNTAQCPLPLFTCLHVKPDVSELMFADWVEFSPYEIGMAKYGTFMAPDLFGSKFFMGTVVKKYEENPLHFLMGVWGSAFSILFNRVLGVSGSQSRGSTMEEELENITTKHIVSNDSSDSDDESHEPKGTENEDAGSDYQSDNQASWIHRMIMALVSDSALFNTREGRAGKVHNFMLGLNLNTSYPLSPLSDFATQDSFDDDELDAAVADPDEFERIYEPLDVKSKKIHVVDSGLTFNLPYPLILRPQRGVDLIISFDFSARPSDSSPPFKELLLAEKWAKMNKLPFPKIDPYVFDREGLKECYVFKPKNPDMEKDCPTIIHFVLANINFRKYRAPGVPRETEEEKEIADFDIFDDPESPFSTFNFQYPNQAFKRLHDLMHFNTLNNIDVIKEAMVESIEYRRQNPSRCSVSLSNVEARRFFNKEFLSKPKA

[6] = Inhibition of LTB4 production in MC9 cells at 1.5 uM; assay type: functional; conditions: Mus musculus
[7] = Inhibition of PGF2-alpha production in MC9 cells at 1.5 uM; assay type: functional; conditions: Mus musculus
[8] = Oral bioavailability in rat; assay type: ADME, organism-based; conditions: in vivo
[9] = Inhibition of LTB4 production in human whole blood; assay type: functional, tissue-based
[10] = Inhibition of LTB4 production expressed in MC9 cells in presence of 4 megacells/mL; assay type: functional, cell-based; conditions: Mus musculus
[11] = Inhibition of LTB4 production expressed in MC9 cells in presence of 8 megacells/mL; assay type: functional, cell-based; conditions: Mus musculus
[12] = Inhibition of LTB4 production expressed in MC9 cells in presence of 1 megacells/mL; assay type: functional, cell-based; conditions: Mus musculus
[13] = (§1) Inhibition of TXB2 production in Sprague-Dawley rat whole blood at 10 uM; assay type: functional, tissue-based
[14] = Inhibition of PGF2-alpha production in the presence of exogenous arachidonic acid in MC9 cells at 0.5 uM; assay type: functional; conditions: Mus musculus
[15] = Inhibition of PGF2-alpha production in MC9 cells at 0.5 uM; assay type: functional; conditions: Mus musculus
[16] = Inhibition of LTB4 production in MC9 cells at 0.5 uM; assay type: functional; conditions: Mus musculus
[17] = species: Rattus norvegicus; assay: as §1; assay type: functional, tissue-based

`Cc1c(CCOc2ccc(C(=O)O)cc2)c2cc(Cl)ccc2n1C(c1ccccc1)c1ccccc1` showed an IC50 [1] of 7 µM, an IC50 [2] of 34 µM and an inhibition at 1.5 µM [3] of -8%. The clearance [4] was 3.2 mL/min/kg, the IC50 [5] was 3 µM and the inhibition at 1.5 µM [6] was 96%. For the same compound, the inhibition at 1.5 µM [7] was 81%, the bioavailability [8] was 2.6% and the IC50 [9] was 30 µM.

In the case of `COc1cc(C(=O)O)ccc1Cc1cn(C(c2ccccc2)c2ccccc2)c2cc(Cl)ccc12`, the IC50 [10] is reported as 1.5 µM, the IC50 [1] is reported as over 400 µM and the IC50 [11] is reported as 8.3 µM. For the same compound, the IC50 [5] was 160 µM and the IC50 [12] was 0.8 µM.

In the case of `O=C(O)c1ccc(OCCc2c(-c3ccccc3)n(C(c3ccccc3)c3ccccc3)c3ccc(Cl)cc23)cc1`, the IC50 [1] is reported as over 50 µM and the IC50 [5] is reported as over 50 µM.

`O=C(COc1ccc(SCCCCCc2ccccc2)cc1)COc1ccc(C(=O)O)cc1` showed an IC50 [10] of 1.5 µM, an IC50 [1] of 12 µM and an IC50 [5] of 0.04 µM.

With `Cc1c(CCC(=O)NCc2ccc(C(=O)O)cc2)c2cc(Cl)ccc2n1C(c1ccccc1)c1ccccc1` the IC50 [1] was 50 µM and the IC50 [5] was 30 µM.

With `Cc1c(CC(=O)O)c2cc(Cl)ccc2n1C(c1ccccc1)c1ccccc1` the IC50 [1] was under 100 µM and the IC50 [5] was 165 µM.

`O=C(O)c1cccc(CC(O)Cc2cn(C(c3ccccc3)c3ccccc3)c3cc(Cl)ccc23)c1` (centres undefined) gave an IC50 [5] of 90 µM.

In the case of `Cc1c(CCOc2ccc(C(=O)O)c(Cl)c2)c2cc(Cl)ccc2n1C(c1ccccc1)c1ccccc1`, the IC50 [1] is reported as 25 µM and the IC50 [5] is reported as 7 µM.

In the case of `Cc1c(CCOc2ccc(C(=O)O)cn2)c2cc(Cl)ccc2n1C(c1ccccc1)c1ccccc1`, the IC50 [13] is reported as “Not Active” and the IC50 [5] is reported as 85 µM.

For `O=C(O)c1ccc(OCCc2cn(C(c3ccccc3)c3ccccc3)c3ccc(Cl)cc23)cc1`, the IC50 [1] was 14 µM and the IC50 [5] was 5 µM.

In the case of `Cc1c(CCCc2ccc(C(=O)O)cc2)c2cc(Cl)ccc2n1C(c1ccccc1)c1ccccc1`, the IC50 [5] is reported as 2 µM.

In the case of `Cc1c(CCOc2ccc(CC(=O)O)cc2)c2cc(Cl)ccc2n1C(c1ccccc1)c1ccccc1`, the IC50 [1] is reported as 48 µM and the IC50 [5] is reported as over 10 µM.

For `Cc1c(CCOc2ccc(C(=O)O)cc2)c2cc([N+](=O)[O-])ccc2n1C(c1ccccc1)c1ccccc1`, the IC50 [1] was 8 µM and the IC50 [5] was 5 µM.

Compound `Cc1c(CCS(=O)(=O)c2ccc(CCC(=O)O)cc2)c2cc(Cl)ccc2n1C(c1ccccc1)c1ccccc1` has an inhibition at 0.5 µM [14] of 2%, an IC50 [1] of 0.8 µM and an inhibition at 0.5 µM [15] of 100%. It also gave an IC50 [2] of 1.4 µM, a clearance [4] of 47 mL/min/kg and an IC50 [5] of 0.5 µM. For the same compound, the bioavailability [8] was 11%, the IC50 [9] was 0.9 µM and the inhibition at 0.5 µM [16] was 100%.

Work on `Cc1c(CCS(=O)(=O)c2ccc(C(=O)O)cc2)c2cc(Cl)c(Cl)cc2n1C(c1ccccc1)c1ccccc1` yielded an IC50 [1] of 2 µM and an IC50 [5] of 3 µM.

Work on `Cc1c(CCS(=O)(=O)CCc2ccc(C(=O)O)cc2)c2cc(Cl)ccc2n1C(c1ccccc1)c1ccccc1` yielded an IC50 [1] of 14 µM and an IC50 [5] of 93 µM.

With `COC(=O)c1ccc(OCCc2c(C(C)(C)C)n(C(c3ccccc3)c3ccccc3)c3ccc(Cl)cc23)cc1` the IC50 [1] was over 25 µM and the IC50 [5] was 20 µM.

Compound `Cc1c(CCOc2ccc(C(=O)O)cc2)c2cc(-c3ccccc3)ccc2n1C(c1ccccc1)c1ccccc1` has an IC50 [1] of 9 µM and an IC50 [5] of 33 µM.

With `Cc1c(CCS(=O)(=O)c2ccc(C(=O)O)cc2)c2c(Cl)cccc2n1C(c1ccccc1)c1ccccc1` the IC50 [1] was 12 µM and the IC50 [5] was 2 µM.

Compound `Cc1c(CCCCOc2ccc(C(=O)O)cc2)c2cc(Cl)ccc2n1C(c1ccccc1)c1ccccc1` has an IC50 [1] of 9 µM and an IC50 [5] of 2 µM.

`Cc1c(CCOc2cc(C(=O)O)on2)c2cc(Cl)ccc2n1C(c1ccccc1)c1ccccc1` showed an IC50 [1] of over 50 µM and an IC50 [5] of 40 µM.

`Cc1c(CCOc2ccc(CCCC(=O)O)cc2)c2cc(Cl)ccc2n1C(c1ccccc1)c1ccccc1` gave an IC50 [1] of 50 µM and an IC50 [5] of 20 µM.

`Cc1c(C(=O)C(=O)Nc2ccc(C(=O)O)cc2)c2cc(Cl)ccc2n1C(c1ccccc1)c1ccccc1` showed an IC50 [1] of 25 µM and an IC50 [5] of 26 µM.

In the case of `Cc1c(CCNc2ccc(C(=O)O)cc2)c2cc(Cl)ccc2n1C(c1ccccc1)c1ccccc1`, the IC50 [1] is reported as over 25 µM and the IC50 [5] is reported as 23 µM.

`Cc1c(CCS(=O)(=O)c2ccc(C(=O)O)cc2)c2cc(F)ccc2n1C(c1ccccc1)c1ccccc1` showed an IC50 [1] of 5 µM and an IC50 [5] of 1 µM.

With `Cc1c(CCS(=O)(=O)c2ccc(C(=O)O)cc2)c2cccc(Cl)c2n1C(c1ccccc1)c1ccccc1` the IC50 [1] was 10 µM and the IC50 [5] was 6 µM.

For `Cc1c(CCOc2ccc(C(=O)O)cc2Cl)c2cc(Cl)ccc2n1C(c1ccccc1)c1ccccc1`, the IC50 [1] was 25 µM and the IC50 [5] was 11 µM.

For `Cc1c(CCS(=O)(=O)c2ccc(C(=O)O)cc2)c2cc(Cl)ccc2n1C(c1ccccc1)c1ccccc1`, the inhibition at 0.5 µM [14] was 8%, the IC50 [1] was 2 µM and the inhibition at 0.5 µM [15] was 72%. It also gave an IC50 [2] of 8.4 µM, a clearance [4] of 44 mL/min/kg and an IC50 [5] of 0.8 µM. The bioavailability [8] was 39%, the IC50 [9] was 6.3 µM and the inhibition at 0.5 µM [16] was 82%.

With `Cc1c(CCOc2ccc(C(=O)O)cc2)c2cc(N)ccc2n1C(c1ccccc1)c1ccccc1` the inhibition [17] was “inactive” and the IC50 [5] was 8 µM.

For `Cc1c(CCSc2ccc(C(=O)O)cc2)c2cc(Cl)ccc2n1C(c1ccccc1)c1ccccc1`, the IC50 [1] was 10 µM and the IC50 [5] was 2 µM.

In the case of `Cc1c(CCOc2ccc(C(=O)O)cc2)c2cc(Br)ccc2n1C(c1ccccc1)c1ccccc1`, the IC50 [1] is reported as 3 µM and the IC50 [5] is reported as 2 µM.

In the case of `O=C(O)c1ccc(OCC(O)Cc2cn(C(c3ccccc3)c3ccccc3)c3cc(Cl)ccc23)cc1` (centres undefined), the IC50 [1] is reported as 100 µM and the IC50 [5] is reported as 40 µM.

Work on `Cc1c(CCS(=O)(=O)c2ccc(C(=O)O)cc2)c2ccc(Cl)cc2n1C(c1ccccc1)c1ccccc1` yielded an IC50 [1] of 5 µM and an IC50 [5] of 4 µM.

`Cc1c(CCOc2ccc(C(=O)O)c(F)c2)c2cc(Cl)ccc2n1C(c1ccccc1)c1ccccc1` showed an IC50 [1] of 8 µM and an IC50 [5] of 2 µM.

`Cc1c(CCOc2cccc(C(=O)O)c2)c2cc(Cl)ccc2n1C(c1ccccc1)c1ccccc1` showed an IC50 [1] of over 50 µM and an IC50 [5] of 120 µM.

`Cc1c(CCOC(=O)Nc2ccc(C(=O)O)cc2)c2cc(Cl)ccc2n1C(c1ccccc1)c1ccccc1` showed an IC50 [1] of 13 µM and an IC50 [5] of 38 µM.

With `O=C(O)c1ccc(OCC(O)COc2ccc(SCCCCCc3ccccc3)cc2)cc1` (centres undefined) the IC50 [1] was over 100 µM and the IC50 [5] was 340 µM.

In the case of `Cc1c(CC[S+]([O-])c2ccc(C(=O)O)cc2)c2cc(Cl)ccc2n1C(c1ccccc1)c1ccccc1` (centres undefined), the IC50 [1] is reported as 3 µM and the IC50 [5] is reported as 1 µM.

In the case of `Cc1c(CCOc2ccc(C(=O)O)cc2)c2cc(N3CCOCC3)ccc2n1C(c1ccccc1)c1ccccc1`, the IC50 [1] is reported as over 10 µM and the IC50 [5] is reported as 22 µM.

In the case of `Cc1c(CC[S+]([O-])CCc2ccc(C(=O)O)cc2)c2cc(Cl)ccc2n1C(c1ccccc1)c1ccccc1` (centres undefined), the IC50 [1] is reported as 25 µM and the IC50 [5] is reported as 18 µM.

Compound `COc1c(Cc2cn(C(c3ccccc3)c3ccccc3)c3cc(Cl)ccc23)cccc1C(=O)O` has an IC50 [5] of 120 µM.

`COc1ccc2c(c1)c(CCS(=O)(=O)c1ccc(C(=O)O)cc1)c(C)n2C(c1ccccc1)c1ccccc1` gave an IC50 [1] of 7 µM and an IC50 [5] of 3 µM.

`Cc1c(CCOc2ccc(C(=O)O)cc2)c2ccc(Cl)cc2n1C(c1ccccc1)c1ccccc1` gave an IC50 [1] of 13 µM and an IC50 [5] of 6 µM.

For `Cc1c(CCOc2ccc(CCC(=O)O)cc2)c2cc(Cl)ccc2n1C(c1ccccc1)c1ccccc1`, the IC50 [1] was 2 µM and the IC50 [5] was 3 µM.

In the case of `Cc1c(CCS(=O)(=O)c2ccc(C(=O)O)cc2)c2ccccc2n1C(c1ccccc1)c1ccccc1`, the IC50 [1] is reported as 6 µM and the IC50 [5] is reported as 2 µM.

Compound `Cc1c(CCS(=O)(=O)c2ccc(C(=O)O)cc2)c2c(Cl)c(Cl)ccc2n1C(c1ccccc1)c1ccccc1` has an IC50 [1] of 4 µM and an IC50 [5] of 1 µM.
